For eight compounds, IC50 results are on record in patent publication US9555039B2, “Piperidine derivatives and compositions for the inhibition of nicotinamide phosphoribosyltransferase (NAMPT)” (Forma TM, LLC., priority 2011, dated 2017).

Assay [1] has as its system A2780 cells. The experiment in a line: In-vitro cell proliferation assay (SRB, 72 hours). The assay is classed as cell-based. Conditions: Homo sapiens, sulforhodamine B (SRB) assay. The essentials: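 Background from media-only plate subtracted; inhibition relative to DMSO-treated cells, value derived by interpolation between two concentrations.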
(The SRB assay estimates cell density from bound dye.)

Assay [2] deals with T1, Recombinant His-tagged NAMPT (Homo sapiens, UniProt P43490).
T1 construct: His; host or cells: E. coli
T1 sequence (P43490 whole entry): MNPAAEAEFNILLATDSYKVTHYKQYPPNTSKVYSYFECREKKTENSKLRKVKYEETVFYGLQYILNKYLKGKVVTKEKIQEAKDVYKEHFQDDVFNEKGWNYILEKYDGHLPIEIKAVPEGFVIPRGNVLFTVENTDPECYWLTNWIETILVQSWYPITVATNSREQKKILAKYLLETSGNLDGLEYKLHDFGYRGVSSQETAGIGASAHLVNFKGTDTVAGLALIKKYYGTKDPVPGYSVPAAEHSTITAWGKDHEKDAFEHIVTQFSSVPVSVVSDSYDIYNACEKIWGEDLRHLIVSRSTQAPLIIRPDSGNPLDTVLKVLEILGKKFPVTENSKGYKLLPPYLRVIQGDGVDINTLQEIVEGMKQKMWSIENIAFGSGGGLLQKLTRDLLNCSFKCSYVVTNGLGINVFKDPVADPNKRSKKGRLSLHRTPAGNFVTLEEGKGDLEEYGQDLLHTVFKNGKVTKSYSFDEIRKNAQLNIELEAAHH
Description: Biochemical inhibition assay: NAMPT enzymatic reaction, NMN quantified by mass spectrometry. As to conditions: 33 nM NAMPT, 1 μM NAM, 100 μM PRPP, 2.5 mM ATP, 30 minutes at room temperature; read-out: Biochem IC50. The method, boiled down: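 Reaction 30 min at room temperature with 1 μM NAM, 100 μM PRPP, 2.5 mM ATP (final), quenched with formic acid. NMN quantified by RapidFire electrospray MS, normalized to L-cystathionine; IC50 from percent inhibition versus DMSO.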

As for `O=C(NCCCCC1CCN(C(=O)c2ccc(Cl)cc2Cl)CC1)c1cc2cnccc2[nH]1` [N-(4-{1-[(2,4-dichlorophenyl)carbonyl]piperidin-4-yl}butyl)-1H-pyrrolo[3,2-c]pyridine-2-carboxamide], the IC50 in assay [1] is 12 nM; in assay [2], 70 nM.
For `O=C(NCCCCC1CCN(S(=O)(=O)c2cc(F)ccc2F)CC1)c1cc2cnccc2[nH]1` [N-(4-{1-[(2,5-difluorobenzene)sulfonyl]piperidin-4-yl}butyl)-1H-pyrrolo[3,2-c]pyridine-2-carboxamide] the same measures were 5.8 nM and 11.1 nM.
On to `CC(C)c1ncoc1C(=O)N1CCC(CCCCNC(=O)c2ccc3nccn3c2)CC1` [N-[4-(1-{[4-(propan-2-yl)-1,3-oxazol-5-yl]carbonyl}piperidin-4-yl)butyl]imidazo[1,2-a]pyridine-6-carboxamide], for which the IC50 in assay [1] is 8.2 nM; in assay [2] it was 27.5 nM.
The corresponding values for `O=C(NCCCCC1CCN(C(=O)c2ccc3[nH]ccc3c2)CC1)c1cc2cnccc2[nH]1` [N-(4-{1-[(1H-indol-5-yl)carbonyl]piperidin-4-yl}butyl)-1H-pyrrolo[3,2-c]pyridine-2-carboxamide] are 13.5 nM and 39.4 nM.
For `O=C(NCCCCC1CCN(C(=O)c2ccc3cc[nH]c3c2)CC1)c1cc2ccncc2s1` [N-(4-{1-[(1H-indol-6-yl)carbonyl]piperidin-4-yl}butyl)thieno[2,3-c]pyridine-2-carboxamide] the same measures were 70.3 nM and 36.1 nM.
The corresponding values for `O=C(NCCCCC1CCN(C(=O)c2cc3ccccc3s2)CC1)c1cc2cnccc2[nH]1` [N-(4-{1-[(1-benzothiophen-2-yl)carbonyl]piperidin-4-yl}butyl)-1H-pyrrolo[3,2-c]pyridine-2-carboxamide] are 69.9 nM and 124 nM.
On to `O=C(NCCCCC1CCN(C(=O)c2csc(-c3cccnc3)n2)CC1)c1cc2cnccc2[nH]1` [N-[4-(1-{[2-(pyridin-3-yl)-1,3-thiazol-4-yl]carbonyl}piperidin-4-yl)butyl]-1H-pyrrolo[3,2-c]pyridine-2-carboxamide], for which the IC50 in assay [1] is 14.9 nM; in assay [2], 81.1 nM.
For `O=C(NCCCCC1CCN(C(=O)c2ccc(-n3cccn3)cc2)CC1)c1cc2ccncc2s1` [N-[4-(1-{[4-(1H-pyrazol-1-yl)phenyl]carbonyl}piperidin-4-yl)butyl]thieno[2,3-c]pyridine-2-carboxamide] the same measures were 100 to 1000 nM and 48.1 nM.

A word on the IC50: it is the point on the concentration scale where inhibition reaches its midpoint.
